{"source": "patent US20240209016A1", "about": "“FLUORESCENT NUCLEOSIDE PHOSPHATES” (STEALTH LABELS BIOTECH AB, priority 2021, published 2024)", "system": "Huh-7 cells", "assay": "alamarBlue cell viability (metabolic activity) assay", "type": "cell-based", "settings": "analogous experiments, FIG. 10", "experimental": "The Huh-7 human liver cell line was used.\nAfter 24 h exposure with compounds 7 or 17, the conditioned medium was removed from the cells and used for the LDH leakage assay (see below). Freshly prepared alamarBlue cell viability reagent (Invitrogen, diluted 1:10 in CCM) was added, followed by incubation for 3 h at 37° C. and 5% CO2. The resulting resorufin fluorescence was read using an Optima Fluostar plate reader (BMG Labtech) Ex: 544 nm/Em: 590 nm. Dimethyl sulfoxide 5% and CCM alone (i.e. compounds 7 and 17 0 μM) were used as positive and negative controls for cell death, respectively.", "data": [{"smiles": "N#Cc1ccc2c(c1)Nc1ncnc3c1c-2cn3[C@@H]1O[C@H](COP(=O)(O)O)[C@@H](O)[C@H]1O", "note": "[7a, ((2R,3S,4R,5R)-5-(8-cyano-2,3,5,6-tetraazaaceanthrylen-2(6H)-yl)-3,4-dihydroxytetrahydrofuran-2-yl)methyl dihydrogen phosphate]", "values": [{"measurement": "toxicity (cytotoxicity assessment, monophosphate)", "result": "non-toxic"}]}]}
